# Molecular target: recombinant human cathepsin S (Homo sapiens, UniProt P25774)
# Assay: in vitro cathepsin S assay
# Assay type: biochemical
# Details: substrate Z-Leu-Leu-4-methylcoumaryl-7-amide, pH 7.0, ambient temperature, read-out: IC50 for the inhibition of human cathepsin S
# Protocol: The in vitro assay is carried out in clear, flat-bottomed, 96-well microtiter plates (Greiner GmbH, Germany) at ambient temperature using recombinant human cathepsin S. Inhibition of human cathepsin S is assayed at a constant enzyme and various substrate concentrations (substrate is Z-Leu-Leu-4-methylcoumaryl-7-amide (Bachem (Switzerland)) in 100 parts 0.2M sodium phosphate, pH 7.0, containing 2 mM EDTA, 2 parts 1% Triton X-100, 10 parts 20 mM dithlothreitol (DTT) and 58 parts distilled water. The assay is started by adding the enzyme solution (13 times higher concentration of final concentration of recombinant human Cathepsin S) to the reaction mixture containing various concentrations of the corresponding substrate and the compound. Substrate concentrations between 3.4 and 17 μM are used. The recombinant human Cathepsin S is used at a final concentration of 0.04 nM. Test compounds are used at concentrations between 0.4 and 2 times the determined IC50 of the compound at the enzyme. The relative fluorescence is continuously measured for 30 minutes and the initial velocity is obtained from each progress curve. […]
# Sequence of recombinant human cathepsin S (P25774 115-331): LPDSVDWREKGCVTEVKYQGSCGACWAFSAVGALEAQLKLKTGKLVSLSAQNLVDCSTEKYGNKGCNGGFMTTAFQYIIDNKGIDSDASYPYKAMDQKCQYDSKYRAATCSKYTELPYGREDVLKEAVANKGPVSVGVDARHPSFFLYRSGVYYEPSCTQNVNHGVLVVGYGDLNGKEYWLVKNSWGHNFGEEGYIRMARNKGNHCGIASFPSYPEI
row,SMILES,IC50 [nM]
1,N#Cc1ncc2cc(CN3CCCC3)n(CCC3CCCCC3)c2n1 [Example 278],33
2,"N#Cc1ncc2cc(Cc3ccc(N4CCCC4=O)cc3)n(CCC3CCCCC3)c2n1 [Example 179, 7-(2-Cyclohexyl-ethyl)-6-[4-(2-oxo-pyrrolidin-1-yl)-benzyl]-7H-pyrrolo[2,3-d]pyrimidine-2-carbonitrile]",35
3,CC(C)CCn1c(Cc2cccs2)cc2cnc(C#N)nc21 [Example 193],4.1
4,CC(C)(C)CCn1c(Cc2ccc(CO)cc2)cc2cnc(C#N)nc21 [Example 175],5.1
5,CCCNC(=O)c1ccc(OCc2cc3cnc(C#N)nc3n2CCC2CCCCC2)c(Cl)c1 [Example 54],32
6,N#Cc1ncc2cc(Cc3ccc(F)c(F)c3)n(CCc3ccc(Cl)cc3)c2n1 [Example 169],30
7,"CC(=O)N1CCC2(CCN(Cc3cc4cnc(C#N)nc4n3CCC3CCCCC3)CC2)C1 [Example 335, 6-(2-Acetyl-2,8-diaza-spiro[4,5]dec-8-ylmethyl)-7-(2-cyclohexyl-ethyl)-7H-pyrrolo[2,3-d]pyrimidine-2-carbonitrile]",48
